Measurements: patent US11472811B2, “Pyrazolotriazolopyrimidine derivatives as A2A receptor antagonist” (BEIGENE, LTD., priority 2018, dated 2022)
Like-named read-outs stand apart in the source and are kept apart here.

Experiments:
[1] = target: human adenosine A2A receptor (A2AR) (Homo sapiens (Human), UniProt P29274); test: Adenosine receptor binding assay, A2A (radioligand competitive binding); details: membrane homogenates from HEK293 cells transfected with A2AR, 6 nM [3H]CGS21680
Method: (§1) Binding affinity of test compounds to four human adenosine receptors, A1, A2A, A2B and A3 was determined in radioligand competitive binding assay (conducted by Cerep, France) using following protocols. For A1 receptor (A1R), membrane homogenates from CHO cells transfected with A1R were incubated for 60 min at 22° C. with 1 nM [3H]DPCPX in the absence or presence of the test compound in a buffer containing 50 mM Tris-HCl (pH 7.4), 5 mM MgCl2, 1 mM EDTA/Tris and 2 UI/mL ADA. For A2AR, membrane homogenates from HEK293 cells transfected with A2AR were incubated for 120 min at 22° C. with 6 nM [3H]CGS21680 in the absence or presence of the test compound in a buffer containing 50 mM Tris-HCl (pH 7.4), 10 mM MgCl2, and 2 UI/mL ADA. For A2B receptor (A2BR), membrane homogenates from HEK293 cells transfected with A2BR were incubated for 60 min at 22° C. with 5 nM [3H]CPX in the absence or presence of the test compound in a buffer containing 10 mM Hepes/Tris (pH 7), 1 mM MgCl2, and 1 mM EDTA. For A3 receptor (A3R), membrane homogenates from HEK293 cells transfected with A3R were incubated for 120 min at 22° C. with 0.15 nM [125I] AB-MECA in the absence or presence of the test compound in a buffer containing 50 mM Tris-HCl (pH 7.4), 5 mM MgCl2, 1 mM EDTA and 2 UI/mL ADA. Nonspecific binding was determined in the presence of unlabeled 1 μM DPCPX, 10 μM NECA, 100 μM NECA, and 1 μM IB-MECA in A1R, A2AR, A2BR, A3R binding assays, respectively. Following incubation, the samples are rapidly filtered and washed with ice-cold 50 mM Tris-HCl. Then filters are dried and counted for radioactivity in a scintillation counter (Topcount, Packard) using a scintillation cocktail (Microscint 0, Packard). Duplicate experiments were performed for each assay. The results are expressed as a percent inhibition of control radioligand specific binding.

[2] = target: human adenosine A1 receptor (A1R) (Homo sapiens (Human), UniProt P30542); test: Adenosine receptor binding assay, A1 (radioligand competitive binding); details: membrane homogenates from CHO cells transfected with A1R, 1 nM [3H]DPCPX
Method: as §1

Mouse BBB assay = type: in vivo; details: oral 10 mg/kg; for Brain (ng · g^−1): at 1 h
Method: Mice were acclimated for 1 week prior to use at 18-30 g body weight. Fasted mice were dosed orally at 10 mg/kg dose. At 1, 2 and 4 hours postdose, plasma samples from cardiac blood collected in tubes containing K2EDTA as the anticoagulant, and excised cerebral hemispheres were immediately frozen and stored at −80° C. until bioanalysis. Total concentrations of the compound were determined by LC-MS/MS. Brain homogenate concentrations were converted to brain concentrations for the calculations of brain-to-plasma ratios.

[3] = target: human A2A receptor (A2AR) (Homo sapiens (Human), UniProt P29274); test: Luciferase reporter assay (HEK293-A2AR-luc2p/CRE/Hygro cells); type: cell-based; details: 3 nM CGS21680, 5 h incubation
How it was run: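 Antagonism was scored as inhibition of CRE-luciferase signal driven by 3 nM CGS21680 (=100%) during a 5 h treatment with compound at 0.1–10000 nM. The line was HEK293 stably carrying human A2AR and luc2P/CRE, preincubated 18 h in 1% FBS containing 1 U/mL ADA. IC50 came from the dose-response curve.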

[4] = BLOQ: below limit of quantitation, Brain is 5 ng/g, read-out: Brain
[5] = limit of quantitation plasma 1 ng/ml, read-out: Plasma
[6] = BLOQ: below limit of quantitation, Brain is 5 ng/g

human adenosine A1 receptor (A1R), sequence (P30542 whole entry): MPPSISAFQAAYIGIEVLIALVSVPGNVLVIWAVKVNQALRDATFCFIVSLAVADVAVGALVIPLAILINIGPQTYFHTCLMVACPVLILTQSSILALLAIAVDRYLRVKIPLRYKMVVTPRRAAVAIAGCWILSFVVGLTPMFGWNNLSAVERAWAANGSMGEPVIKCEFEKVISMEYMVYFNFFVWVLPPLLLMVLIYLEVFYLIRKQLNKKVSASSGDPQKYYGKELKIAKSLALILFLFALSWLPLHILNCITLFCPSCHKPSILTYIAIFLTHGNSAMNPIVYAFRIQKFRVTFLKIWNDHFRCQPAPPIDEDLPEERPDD
human A2A receptor (A2AR), sequence (P29274 whole entry): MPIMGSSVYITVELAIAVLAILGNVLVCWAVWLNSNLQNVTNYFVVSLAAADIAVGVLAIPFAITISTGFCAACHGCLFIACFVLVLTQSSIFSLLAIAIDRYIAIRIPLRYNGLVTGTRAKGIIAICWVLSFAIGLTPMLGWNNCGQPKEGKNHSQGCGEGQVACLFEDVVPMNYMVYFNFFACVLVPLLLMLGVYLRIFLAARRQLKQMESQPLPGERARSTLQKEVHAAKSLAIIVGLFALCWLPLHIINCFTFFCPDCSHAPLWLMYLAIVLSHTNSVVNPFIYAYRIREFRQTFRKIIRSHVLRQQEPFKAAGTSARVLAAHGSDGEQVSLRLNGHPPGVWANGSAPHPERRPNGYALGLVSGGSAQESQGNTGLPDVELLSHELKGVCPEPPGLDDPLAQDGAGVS
human adenosine A2A receptor (A2AR), sequence (P29274 whole entry): as above

C[C@](C(=O)N[C@@H]1CCC[C@@H]1O)(c1ccccc1)n1ncc2c1nc(N)n1nc(-c3ccco3)nc21 [Example 48B, (R)-2-(5-amino-2-(furan-2-yl)-7H-pyrazolo[4,3-e][1,2,4]triazolo[1,5-c]pyrimidin-7-yl)-N-((1R,2S)-2-hydroxycyclopentyl)-2-phenylpropanamide]
Ki [1]: 2.2 nM | Ki [2]: 12 nM | concentration at 1 h (Mouse BBB assay; [4]): 8.69 ng/g | concentration at 1 h (Mouse BBB assay; [5]): 56.3 ng/mL | IC50 [3]: 1.6 nM

C[C@](C(=O)NCC1(O)COC1)(c1ccccc1)n1ncc2c1nc(N)n1nc(-c3ccco3)nc21 [Example 31B, (R)-2-(5-amino-2-(furan-2-yl)-7H-pyrazolo[4,3-e][1,2,4]triazolo[1,5-c]pyrimidin-7-yl)-N-((3-hydroxyoxetan-3-yl)methyl)-2-phenylpropanamide]
Ki [1]: 1.2 nM | Ki [2]: 180 nM | Brain (ng · g^−1) (Mouse BBB assay; [6]): BLOQ | concentration at 1 h (Mouse BBB assay; [5]): 177 ng/mL | IC50 [3]: 2.3 nM

COCCOc1ccc(N2CCN(CCn3ncc4c3nc(N)n3nc(-c5ccco5)nc43)CC2)cc1 [Preladenant, reference compound]
concentration at 1 h (Mouse BBB assay; [4]): 258 ng/g | concentration at 1 h (Mouse BBB assay; [5]): 197 ng/mL

Nc1nc2c(cnn2[C@H](C(=O)NCC2(O)COC2)c2ccccc2)c2nc(-c3ccco3)nn12 [Example 82B]
Ki [1]: 1.7 nM | Ki [2]: 7.2 nM | IC50 [3]: 3.8 nM

C[C@](C(=O)N[C@H]1CC[C@@H](O)CC1)(c1ccccc1)n1ncc2c1nc(N)n1nc(-c3ccco3)nc21 [Example 76B, (R)-2-(5-amino-2-(furan-2-yl)-7H-pyrazolo[4,3-e][1,2,4]triazolo[1,5-c]pyrimidin-7-yl)-(cis)-N-(4-hydroxycyclohexyl)-2-phenylpropanamide]
Ki [1]: 1.6 nM | Ki [2]: 150 nM | Brain (ng · g^−1) (Mouse BBB assay; [6]): BLOQ | concentration at 1 h (Mouse BBB assay; [5]): 39.1 ng/mL | IC50 [3]: 2.2 nM

CC(C(=O)NCC1(O)CCOCC1)(c1ccccc1)n1ncc2c1nc(N)n1nc(-c3ccco3)nc21 (centres unmarked) [Example 80, 2-(5-amino-2-(furan-2-yl)-7H-pyrazolo[4,3-e][1,2,4]triazolo[1,5-c]pyrimidin-7-yl)-N-((4-hydroxytetrahydro-2H-pyran-4-yl)methyl)-2-phenylpropanamide]
IC50 [3]: 9.4 nM

CC(C(=O)NCCC1CCOC1)(c1ccccc1)n1ncc2c1nc(N)n1nc(-c3ccco3)nc21 (centres unmarked) [Example 74, 2-(5-amino-2-(furan-2-yl)-7H-pyrazolo[4,3-e][1,2,4]triazolo[1,5-c]pyrimidin-7-yl)-2-phenyl-N-(2-(tetrahydrofuran-3-yl)ethyl)propanamide]
IC50 [3]: 11.1 nM

Cc1ccc(CNC(=O)C(c2ccccc2)n2ncc3c2nc(N)n2nc(-c4ccco4)nc32)cc1 (centres unmarked) [Example 25, 2-(5-amino-2-(furan-2-yl)-7H-pyrazolo[4,3-e][1,2,4]triazolo[1,5-c]pyrimidin-7-yl)-N-(4-methylbenzyl)-2-phenylacetamide]
IC50 [3]: 1.5 nM

CC(C(=O)NC1CCOCC1)(c1ccccc1)n1ncc2c1nc(N)n1nc(-c3ccco3)nc21 (centres unmarked) [Example 98, 2-(5-amino-2-(furan-2-yl)-7H-pyrazolo[4,3-e][1,2,4]triazolo[1,5-c]pyrimidin-7-yl)-2-phenyl-N-(tetrahydro-2H-pyran-4-yl)propanamide]
IC50 [3]: 19.2 nM

CC(C(=O)N[C@@H]1CCCNC1)(c1ccccc1)n1ncc2c1nc(N)n1nc(-c3ccco3)nc21 (stereo partly drawn) [Example 67, 2-(5-amino-2-(furan-2-yl)-7H-pyrazolo[4,3-e][1,2,4]triazolo[1,5-c]pyrimidin-7-yl)-2-phenyl-N—((R)-piperidin-3-yl)propanamide]
IC50 [3]: 75.5 nM

CC(C(=O)N[C@@H]1CNC(=O)C1)(c1ccccc1)n1ncc2c1nc(N)n1nc(-c3ccco3)nc21 (stereo partly drawn) [Example 100, 2-(5-amino-2-(furan-2-yl)-7H-pyrazolo[4,3-e][1,2,4]triazolo[1,5-c]pyrimidin-7-yl)-N—((S)-5-oxopyrrolidin-3-yl)-2-phenylpropanamide]
IC50 [3]: 11.8 nM

CC(C(=O)N[C@H]1CCCNC1)(c1ccccc1)n1ncc2c1nc(N)n1nc(-c3ccco3)nc21 (stereo partly drawn) [Example 68, 2-(5-amino-2-(furan-2-yl)-7H-pyrazolo[4,3-e][1,2,4]triazolo[1,5-c]pyrimidin-7-yl)-2-phenyl-N—((S)-piperidin-3-yl)propanamide]
IC50 [3]: 72.1 nM

CC(C(=O)NCC1COC1)(c1ccccc1)n1ncc2c1nc(N)n1nc(-c3ccco3)nc21 (centres unmarked) [Example 79, 2-(5-amino-2-(furan-2-yl)-7H-pyrazolo[4,3-e][1,2,4]triazolo[1,5-c]pyrimidin-7-yl)-N-(oxetan-3-ylmethyl)-2-phenylpropanamide]
IC50 [3]: 31 nM

C[C@](C(=O)NCCC1CCC(O)CC1)(c1ccccc1)n1ncc2c1nc(N)n1nc(-c3ccco3)nc21 (stereo partly drawn) [Example 149B, (R)-2-(5-amino-2-(furan-2-yl)-7H-pyrazolo[4,3-e][1,2,4]triazolo[1,5-c]pyrimidin-7-yl)-N-(2-(4-hydroxycyclohexyl)ethyl)-2-phenylpropanamide]
IC50 [3]: 1.7 nM

CC1(O)CCC(NC(=O)[C@@](C)(c2ccccc2)n2ncc3c2nc(N)n2nc(-c4ccco4)nc32)CC1 (stereo partly drawn) [Example 69B, (R)-2-(5-amino-2-(furan-2-yl)-7H-pyrazolo[4,3-e][1,2,4]triazolo[1,5-c]pyrimidin-7-yl)-(cis)-N-(4-hydroxy-4-methylcyclohexyl)-2-phenylpropanamide]
Ki [1]: 1.6 nM | Ki [2]: 540 nM | Brain (ng · g^−1) (Mouse BBB assay; [6]): BLOQ | concentration at 1 h (Mouse BBB assay; [5]): 29.4 ng/mL | IC50 [3]: 3.9 nM

Cc1cccnc1CNC(=O)[C@@](C)(c1ccccc1)n1ncc2c1nc(N)n1nc(-c3ccco3)nc21 [Example 111B, (R)-2-(5-amino-2-(furan-2-yl)-7H-pyrazolo[4,3-e][1,2,4]triazolo[1,5-c]pyrimidin-7-yl)-N-((3-methylpyridin-2-yl)methyl)-2-phenylpropanamide]
IC50 [3]: 0.5 nM
